Experimental data published in patent EP3967319A1, “COMPOSITION FOR SKIN PROTECTION COMPRISING KAEMPFEROL SACCHARIDES COMPOUNDS” (Amorepacific Corporation, priority 2020, dated 2022).

Experiments:
[1] = tested on: 3D skin models (skin equivalents); assay: 3D skin models (skin equivalents) from senescent NHDFs, histology and immunohistochemistry; format: cell-based, human; details: BX-795 100 nM, FIGS. 10A-10B
Experimental: (§1) 3D skin models (skin equivalents) were prepared from young NHDFs (PDL 12) or senescent NHDFs induced into senescence by doxorubicin and IGF-1 or repeated plating (replicative senescence, PDL 57) and were exposed to DMSO or BX795. The treatment concentrations are as follows: doxorubicin ([…]), IGF-1 (100 ng/mL), BX-795 (100 nM).
The indicated proteins were detected by immunohistochemistry. The results are from three representative experiments. Scale bar = 50 µm.
Paraffin samples were dewaxed in xylene and rehydrated through a descending ethanol to water series (3 minutes per solution). […] The sections were then incubated with water/1% H2O2 for 30 minutes to block endogenous peroxidase, rinsed with water and PBS/0.05% Tween 20 for 5 minutes, and incubated with PBS/10% goat serum (Dako, Glostrup, Denmark) for 20 minutes before exposure to the following antibodies overnight at 4 °C; Primary antibodies are: anti-KRT 10 (Biolegend, San Diego, CA), anti-FLG (Abcam), anti-MMP-1(Abcam) and anti-Ki67 (Abcam). […]
Finally, the sections were dehydrated in graded ethanol, cleared in xylene and mounted in Cytoseal 60 (Thermo Scientific, Waltham, MA). […] Tissue sections were incubated with COL17A1 (Abcam) and laminin-5 (Santa Cruz Biotechnology) in Dako fluorescence mounting medium (Dako) at 4 °C overnight. […]

[2] = tested on: GRO, GROα, IL-6, IL-8, MCP-1 to 3 and RANTES; assay: Cytokine antibody array of conditioned media of skin equivalents (SASP); format: cell-based, human; details: skin equivalents from either type of senescent NHDFs, BX-795 100 nM, versus vehicle-treated; FIGS. 11A-11B
Experimental: as §1, with “PDK1 inhibition inhibits SASP in skin equivalents. 3D” for “3D”, “57),” for “57)”
Mean ± SD (n = 3), ***P < 0.001 compared to DMSO control senescent cells by one-way analysis of variance.

[3] = tested on: senescence marker SA-beta-Gal; assay: Expression of senescence marker SA-beta gal in senescent skin cells (cellular senescence assay kit); format: cell-based, human; details: senescent NHDF (passage 37), 3 µM for 7 days; control 78± 5.2
Experimental: Normal human dermal fibroblasts (NHDF; Lonza, Switzerland) were cultured in Dulbecco's modified Eagle's medium (DMEM, GIBCO 1210-0038) containing 10% fetal bovine serum, in a 5% CO2 incubator at 37 °C. Cells at passages 6-9 were denoted as young cells, and they were subcultured by 1:5 subculturing until passage 37 to obtain senescent dermal fibroblasts. The senescent skin cells of (1) were treated with DMSO, the compounds repressed by Chemical Formula 1, 2, 3, 4, 5, 6, 7 and 8, kaempferol 3-O-β-rutinoside (Chemical Formula 9) or kaempferol 7-O-β-D-glucopyranoside (Chemical Formula 10) at 3 µM for 7 days. [drawing 30] [drawing 31] On day 8, the cells were washed with PBS and stained with a fixative and a stain provided together with a cellular senescence assay kit (Cell Biolabs, Inc., San Diego, CA, USA) at 37 °C for 16 hours. On the next day, after washing with PBS and applying a 20% glycerol solution, the number of cells stained green was counted and the degree of expression of the senescence marker SA-beta-Gal was evaluated.

MMP-1 = MMP-1 ELISA assay in UVB-irradiated HDF cells; format: cell-based, human; details: UVB 15 mJ/cm^2, 2 µM or 3 µM, 48 hours, compared to Chemical Formulas 5 and 7 or retinoic acid (RA), FIG. 3
Experimental: HDF cells were seeded onto a 24-well plate at a concentration of 2.5x10^4 cells/well and were culture for 24 hours under a cell culturing condition. Then, the cells were cultured for 48 hours after treating with a test substance diluted in FBS-free DMEM. After washing with Dulbecco's phosphate-buffered saline (DPBS) and irradiating UVB (15 mJ/cm^2), the medium was replaced with the test substance (2 µM or 3 µM) diluted in DMEM and the cells were cultured for 48 hours. Then, the supernatant was recovered and the amount of MMP-1 was measured using a human total MMP-1 ELISA kit (R&D Systems).

[4] = tested on: Human epidermis models (EpiDerm™ EPI-201); assay: Improvement of skin barrier in 3D organotypic skin epidermis (immunostaining of barrier markers); format: cell-based; details: old donor epidermis model, 3 µM for 4 days
Experimental: Human epidermis models (EpiDerm™ EPI-201; […] The human epidermis model derived from the old donor was treated with the kaempferol tetrasaccharide represented by Chemical Formula 1 at 3 µM for 4 days. Paraffin blocks were prepared after fixing with 10% neutral buffered formalin.
After reacting with anti-KRT 10 (Biolegend, San Diego, CA), anti-FLG (Novus Biologicals, Centennial CO, USA), anti-Involucrin and anti-Ki67 (Abcam) antibodies, the expression of the antibodies was analyzed using a microscope. Specifically, the epidermal tissue derived from the young donor (Young) and the epidermal tissue derived from the old donor (Old) were treated with the test substance and then stained with the antibodies described above. The result is shown in FIG. 4, FIGS. 5A-5B and FIGS. 6A-6C. FIGS. 5A-5B and FIGS. 6A-6C show the result of quantifying the result of FIG. 4.

O=C(NCCCNc1nc(Nc2cccc(NC(=O)N3CCCC3)c2)ncc1I)c1cccs1 [BX795]
epidermal thickness in the skin equivalents ([1]; skin equivalents from senescence-induced NHDFs): preserved epidermal thickness
proliferation marker Ki-67 in the epidermis of the skin equivalents ([1]; skin equivalents from senescent NHDFs): markedly increased
GRO, GROα, IL-6, IL-8, MCP-1 to 3 and RANTES in the conditioned medium [2]: less

C[C@@H]1O[C@@H](OC[C@H]2O[C@@H](Oc3c(-c4ccc(O)cc4)oc4cc(O)cc(O)c4c3=O)[C@H](O[C@@H]3OC[C@@H](O)[C@H](O)[C@H]3O)[C@@H](O)[C@H]2O)[C@H](O)[C@H](O[C@@H]2OC[C@@H](O)[C@H](O)[C@H]2O)[C@H]1O [Chemical Formula 1, kaempferol-3-O-β-D-xylopyranosyl-(1→3)-O-α-L-rhamnopyranosyl-(1→6)-O-β-D-xylopyranosyl-(1→2)-O-β-D-galactopyranoside]
degree of expression of the senescence marker SA-beta-Gal (number of cells stained green) [3]: 38 ± 10.4
effect of inhibiting MMP-1 expression (MMP-1): superior effect of inhibiting MMP-1 expression
epidermal thickness ([4]; FIG. 5A): recovered to levels comparable to those of the young epidermal tissue
expression of the regeneration marker (KI67) ([4]; FIG. 5B): recovered to levels comparable to those of the young epidermal tissue
barrier function (KRT10, FLG, INV) ([4]; FIGS. 6A-6C): recovered to levels comparable to those of the young epidermal tissue

C[C@@H]1O[C@@H](OC[C@H]2O[C@@H](Oc3c(-c4ccc(O)cc4)oc4cc(O)cc(O)c4c3=O)[C@H](O[C@@H]3OC[C@@H](O)[C@H](O)[C@H]3O)[C@@H](O)[C@@H]2O)[C@H](O)[C@H](O[C@@H]2OC[C@@H](O)[C@H](O)[C@H]2O)[C@H]1O [Chemical Formula 2, kaempferol-3-O-β-D-xylopyranosyl-(1→3)-O-α-L-rhamnopyranosyl-(1→6)-O-β-D-xylopyranosyl-(1→2)-O-β-D-glucopyranoside]
degree of expression of the senescence marker SA-beta-Gal (number of cells stained green) [3]: 40 ± 10.4

C[C@@H]1O[C@@H](OC[C@H]2O[C@@H](Oc3c(-c4ccc(O)cc4)oc4cc(O)cc(O)c4c3=O)[C@H](O[C@@H]3O[C@H](CO)[C@@H](O)[C@H](O)[C@H]3O)[C@@H](O)[C@H]2O)[C@H](O)[C@H](O[C@@H]2OC[C@@H](O)[C@H](O)[C@H]2O)[C@H]1O [Chemical Formula 3, kaempferol-3-O-β-D-xylopyranosyl-(1→3)-O-α-L-rhamnopyranosyl-(1→6)-O-β-D-glucopyranosyl-(1→2)-O-β-D-galactopyranoside]
degree of expression of the senescence marker SA-beta-Gal (number of cells stained green) [3]: 42 ± 9.7
effect of inhibiting MMP-1 expression (MMP-1): superior effect of inhibiting MMP-1 expression

C[C@@H]1O[C@@H](OC[C@H]2O[C@@H](Oc3c(-c4ccc(O)cc4)oc4cc(O)cc(O)c4c3=O)[C@H](O)[C@@H](O)[C@@H]2O)[C@H](O)[C@H](O)[C@H]1O [Kaempferol 3-O-β-rutinoside, kaempferol 3-O-β-rutinoside, reference compound]
degree of expression of the senescence marker SA-beta-Gal (number of cells stained green) [3]: 81 ± 11.3

O=c1c(O)c(-c2ccc(O)cc2)oc2cc(O[C@@H]3O[C@H](CO)[C@@H](O)[C@H](O)[C@H]3O)cc(O)c12 [Kaempferol 7-0-β-D-glucopyranoside, kaempferol 7-O-β-D-glucopyranoside, reference compound]
degree of expression of the senescence marker SA-beta-Gal (number of cells stained green) [3]: 79± 9.9

O=c1c(O)c(-c2ccc(O)cc2)oc2cc(O)cc(O)c12 [Kaempferol]
degree of expression of the senescence marker SA-beta-Gal (number of cells stained green) [3]: 80 ± 12.1

kaempferol-3-O-β-D-xylopyranosyl-(1→3)-O-α-L-rhamnopyranosyl-(1→6)-O-β-D-glucopyranosyl-(1→2)-O-β-D-glucopyranoside [Chemical Formula 4]
degree of expression of the senescence marker SA-beta-Gal (number of cells stained green) [3]: 37 ± 9.1
effect of inhibiting MMP-1 expression (MMP-1): superior effect of inhibiting MMP-1 expression
